According to patent publication US20230181604A1, “Use of Mitochondria-Targeted Antioxidants to Treat Severe Inflammatory Conditions” (Mitotech S.A., priority 2020, published 2023):

Legend:
[1] = test system: mice; test: Shock by injection of isolated liver mitochondria into the tail vein, survival; assay type: in vivo; settings: for Mortality after mitochondria injection: C12 TPP instead of SkQ1
Procedure: (§1) SkQ1 protected mice in three different mouse models of severe critical conditions. The first critical condition was induced by injection of a suspension of isolated liver mitochondria into the mouse tail vein. The second critical condition was induced by the sharp cold shock of placing mice for 90 minutes in a −20° C. environment. The third condition was induced by administration of a toxic concentration the of lipophilic cation C12 TPP, whose formula is shown below
The injection of mitochondria had no effect on survival during the first day (100% of the animals survived). However only 60% of animals survived the next two days. This survival rate persisted for at least 16 days. […] In this experiment a strong reduction in weight was clearly observed in the first 3 days after injection of mitochondria. Then the surviving animals began to recover—mortality disappeared, and body weight began to increase. In a control experiment, C12 TPP was used instead of SkQ1. In the case of C12 TPP, 20% of mice died in the first half day after the injection of mitochondria, and in two days the mortality had grown to 80%.
(§2) In the next series of experiments, it was investigated whether animals can be rescued by SkQ1 treatment administered simultaneously with the challenge or even after the challenge.

[2] = test system: mice; test: Cold shock (90 minutes at −20° C.), survival; assay type: in vivo
Procedure: as §1
In the next experiment, critical condition was caused by a completely different stress, namely by cold shock resulting from incubating mice for 1.5 hours at −20° C. It can be seen in FIG. 8 that cold shock led to dramatic increase of mortality between days 5 and 8, resulting in a survival rate of 40%.
as §2

[3] = test system: mice; test: Lethal shock by toxic dose of C12 TPP, survival; assay type: in vivo
Procedure: as §1
In the next experiment a critical condition in mice was induced by i/v injection of a toxic dose of C12 TPP (34 μmole/kg). Considering the membrane-penetrating and membrane-disruptive properties of C12 TPP, it can be expected that the lethal effect of i/v injection of C12 TPP occurs due to disruption of cells in the vascular system, including vascular endothelial cells.
This set of experiments was continued using the lethal shock was caused by toxic concentrations of C12 TPP. Two dosages of C12 TPP were used: 34 μmol/kg C12 TPP (FIG. 12) or 42 μmol/kg C12 TPP (FIG. 13). In the data shown in FIG. 12, SkQ1 (1.5 μmol/kg dosage) was administered to each of the mice both at 4.5 hours before C12 TPP and 0.5 hours after C12 TPP administration. Without SkQ1, about 80% of mice died within 32 hours after the injection of C12 TPP; with SkQ1 the death rate was reduced to 40%. In the experiment described in FIG. 13, the amount of C12 TPP was increased to 42 μmol/kg. […] In the experimental group, SkQ1 was administered once within 1 hour after C12 TPP treatment. In the SkQ1 treatment group ⅓ of the animals survived (FIG. 13).

[4] = test system: TNFα; test: TNFα concentration in blood after shock; assay type: in vivo, mice; settings: intravenous injection of liver mitochondria, i/p SkQ1
[5] = SkQ1 blood concentration with subcutaneous slow-release infusion pumps; assay type: in vivo; settings: Wistar rats, slow-release infusion pumps introduced subcutaneously
Procedure: In the next experiment SkQ1 presence in the blood was prolonged by using slow-release infusion pumps introduced subcutaneously into Wistar rats. Blood samples from these animals were taken at timepoints indicated on FIG. 2, and SkQ1 concentration was measured as described above. […] This experiment also models administration of SkQ1 using intravenous infusion.

[6] = test system: CD-1 mice; test: 28-day chronic toxicity with 14-day recovery, subcutaneous; assay type: in vivo
Procedure: SkQ1 solution 28-day chronic toxicity with 14-day recovery was studied in SPF male and female CD-1 mice at SkQ1 dosage of 0.6, 2.5, and 10 mg/kg administered subcutaneously, once daily. At 2.5 mg SkQ1/kg no adverse effects were identified (NOAEL) either at the end of the dosing or at the end of recovery. […] Peritonitis stemmed from the local ulcerative action of the formulation, while the adverse reactions of systems/organs were apparently the consequences of peritonitis.

[7] = SkQ1 bioavailability study, LCMS/MS blood concentration after i/v, i/p, s/c injection; assay type: in vivo; settings: Wistar rats, 2 mg\kg
Procedure: The bioavailability of SkQ1 was determined after using different methods of administration. SPF category Wistar rats were used. SkQ1 concentration in blood samples was measured using an LCMS/MS method SkQ1 was administered at 2 mg\kg, and blood samples were taken at the indicated time points. Administration was by intravenous injection (FIG. 1A), intraperitoneal injection (FIG. 1B), or subcutaneous injection (FIG. 1C). Total SkQ1 dose was calculated as area under the curve (AUC) as shown at left of FIG. 1D. SkQ1 bioavailability was normalized to that of i/v administration and is shown at the right side of FIG. 1D.

[8] = test system: CD-1 mice; test: Acute toxicity, subcutaneous administration; assay type: in vivo; settings: for LD50: subcutaneous
Description: The acute toxicity of SkQ1 solution administered by subcutaneous administration was studied in SPF male and female CD-1 mice.

[9] = test system: IL-6; test: IL-6 concentration in blood after shock; assay type: in vivo, mice; settings: intravenous injection of liver mitochondria, i/p SkQ1
[10] = test system: human vascular endothelial cells; test: VE-cadherin study of endothelial cell-to-cell contacts after SIRS/sepsis patient serum (western blot, fluorescence microscopy); assay type: cell-based
Procedure: The mitochondrially targeted antioxidants disclosed herein can prevent deconstruction of cell-to-cell contacts between human vascular endothelial cells in culture when these cells are treated with blood serum samples from patients with SIRS or sepsis. Results of a VE-cadherin western blot are presented on FIG. 3, wherein a cell culture of human endothelial cells is pretreated with different dosages of SkQ1, then exposed to serum from patients diagnosed with sepsis. […] In FIG. 4, blood samples are taken from patients with diagnosed SIRS, with the patients age 18-75 years. A cell culture of human endothelial cells is pretreated with different dosages of SkQ1, then treated with 5-10% serum from the SIRS blood samples. At the top of FIG. 4, the VE-cadherin (fluorescence microscopy) c resembles the VE-cadherin at the bottom of FIG. 4 (SIRS serum+200 nM SkQ1). Actin and nucleus visualizations in FIG. 4 correspond with VE-cadherin observations.
Blood samples were taken from patients ages 18-75 years with diagnosed SIRS. Cell cultures of human endothelial cells were pretreated with different amounts of SkQ1, after which the cultures were treated with 5-10% serum from the SIRS blood samples. A one hour VE-cadherin study was performed by fluorescent microscopy followed by western-blot analysis. Results of the experiment are presented on FIG. 3 (western blot) and FIG. 4 (microscopy).

[11] = test system: H5N1 influenza virus (strain chicken/Kurgan/5/2005); assay type: in vivo, balb\c mice
[12] = SkQ1 injected one minute after shock stimulus
[13] = H5N1-infected mice, i/p SkQ1 from day 2

CCCCCCCCCCCC[P+](c1ccccc1)(c1ccccc1)c1ccccc1 [C12 TPP, reference compound]
Mortality after mitochondria injection ([1]; first half day after injection): 20% | Mortality after mitochondria injection ([1]; in two days): 80% | Mortality after cold shock ([2]; premedication and treatment, by the sixth day): 100% | Mice died after C12 TPP ([3]; 34 μmol/kg C12 TPP without SkQ1, within 32 hours): about 80% | Mortality caused by C12 TPP ([3]; 34 μmol/kg i/v, within 1 day): 90% | Death after C12 TPP ([3]; 42 μmol/kg C12 TPP, control group, within 1.5 hours): all 12 animals died

SkQ1
Mortality from injection of mitochondria [1, 12]: significantly reduced | Survival after mitochondria injection ([1]; treatment five days before and five days after mitochondria injection): 90% | Increase of blood concentration of TNFα [4]: almost completely suppressed | SkQ1 concentration in the blood with slow release [5]: can be stabilized | Animals died (due to peritonitis) ([6]; 10 mg/kg subcutaneous once daily, 28 days): ≈ 15% | NOAEL (no adverse effects identified) ([6]; 28 days subcutaneous once daily, 14-day recovery): 2.5 mg SkQ1/kg | SkQ1 bioavailability for intraperitoneal administration, of the bioavailability after intravenous administration ([7]; i/p, AUC normalized to i/v): 35% | Persistence of SkQ1 in blood after injection ([7]; i/v, i/p or s/c injection): rapidly disappears from the blood | SkQ1 bioavailability for subcutaneous administration, of the bioavailability after intravenous administration ([7]; subcutaneous, AUC normalized to i/v): 44% | Findings in mice surviving toxic doses ([8]; 14 days after administration of toxic doses): signs of hepato- and nephrotoxicity | Cause of lethal effect of high doses ([8]; first hours after subcutaneous administration): respiratory arrest | LD50 ([8]; female CD-1 mice): 26.8 (23-31) mg SkQ1/kg | LD50 ([8]; male CD-1 mice): 31 (20.5-37.2) mg SkQ1/kg | Mortality from cold shock [2, 12]: significantly reduced | Death of animals after cold shock ([2]; premedication and after-shock treatment): completely prevented | Increase of blood concentration of IL-6 [9]: almost completely suppressed | VE-cadherin western blot intensity versus control ([10]; 200 nM SkQ1 and sepsis patient serum): about equal intensity to the control | VE-cadherin fluorescence microscopy versus control ([10]; SIRS serum + 200 nM SkQ1): resembles | Deconstruction of cell-to-cell contacts between endothelial cells ([10]; cells treated with serum from patients with SIRS or sepsis, SkQ1 pretreatment): prevented | Death caused by influenza virus infection [11, 13]: delayed | Development of bad health condition [11, 13]: delayed | Protection against critical condition ([11]; intraperitoneal SkQ1 1000 nmoles/kg and 3000 nmoles/kg): protects against the critical condition | Effect on mortality caused by C12 TPP ([3]; 34 μmol/kg C12 TPP, SkQ1 pretreatment): prevented | Death rate after C12 TPP with SkQ1 ([3]; 34 μmol/kg C12 TPP, SkQ1 1.5 μmol/kg 4.5 hours before and 0.5 hours after): 40% | Fraction of animals survived ([3]; 42 μmol/kg C12 TPP, SkQ1 once within 1 hour after C12 TPP): ⅓
